Assay results taken from patent US20140242012A1, “METHODS FOR TREATING UV-DAMAGED SKIN AND SCC TUMORS AND FOR REMOVING TATTOOS WITH TOPICAL INGENOL MEBUTATE” (LEO Laboratories Limited, priority 2011, published 2014).

System: anti-T7 antibodies
Assay: T7 ELISA of serum from cured mice
Type: in vivo, SKH1/hr mice
Experimental: Blood (˜50-100 μl) 1 s taken by tail bleeding the mice and is collected into 0.8 ml MiniCollect® Z Serum Separator tubes that are coated with spray-dried clot activator (Greiner bio-one Cat. Num. 450472) and are spun at 3000 rpm in a microfuge at room temperature for 10 min. The serum is collected and stored at 4° C. for analysis of anti-T7 antibodies by ELISA.
Preparation of T7 ELISA plates: T7 cells are grown to 90% confluence. The medium is aspirated and the cells are washed once with ice-cold PBS. T7 cells are harvested by scraping in PBS supplemented with protease inhibitor cocktail (PIC) and disrupted by sonication at 4° C. for 1-2 min. The T7 lys ate solution is supplemented with bicarbonate buffer (pH 9.6) containing PIC to a final volume of 40 ml and 70 μl/well is added to each well in a 96 well plate (Nunc, Invitro Technologies Cat. Num. 442404). The plates are dried overnight at 37° C.
The following day, the plates are blocked with 10% (w/v) skim milk in PBS for 1 h at room temperature. Meanwhile mouse serum is prepared by diluting 1:7 to 1:413343 in 3-fold dilutions in PBS/0.01% Tween20 (v/v)/1% (w/v) skim milk for the IgG2a plate and 1:10 10 […] in 3-fold dilutions for the IgG1 plate. […] Spectrophotometric readings are taken on an ELISA plate reader at 405 nm and graphs are generated using Graphpad Prism Version 5.01 software. […]

## C/C=C(/C)C(=O)O[C@H]1C(C)=C[C@]23C(=O)[C@@H](C=C(CO)[C@@H](O)[C@]12O)[C@H]1[C@@H](C[C@H]3C)C1(C)C [ingenol mebutate]
Cured female mice bled 107 days post treatment, 0.25% topical
  IgG1 and IgG2a anti-T7 antibodies vs naïve mice: significantly more
Separate group, day 156 post treatment
  anti-tumour antibodies: barely detectable
